Measured values taken from patent US20210087525A1, “COST EFFECTIVE CULTURE MEDIA AND PROTOCOL FOR HUMAN INDUCED PLURIPOTENT STEM CELLS” (NORTHWESTERN UNIVERSITY, priority 2019, published 2021).

Experiments:
hiPSC line 19-3 = experiment: short-term 6-day hiPSC growth assay (media variable optimization); assay type: cell-based, human; details: for necessity of component for hiPSC growth: short-term assay, FIG. 2; for concentrations showing a similar effect on growth rate: FGF2-G3 compared with FGF2-K128N; for optimal / sufficient concentration for growth: one passage growth assay, FIG. 2E-F
Source text: FIG. 2A-F. Optimization of Basic Human Pluripotent Stem Cell Medium Constituents with a Short-Term Growth Assay. Results are normalized to initial medium component concentrations shown with a dark gray bar, optimizations were completed using short-term 6-day growth assay. […] (A) Comparison of the effect of recombinant human IGF1 LR3 (n=3) and recombinant human insulin (n=18-22) concentrations on relative growth. (B) L-ascorbic acid 2-phosphate (n=19-27). (C) Transferrin (n=2-20). (D) Sodium selenite (n=3-20). (E) FGF2-K128N (n=3-12). (F) TGFb1 (n=20-25). n=full experimental replicates, unpaired Student's T-test, *P≤0.05, **P≤0.01, ***P≤0.005, ****P≤0.0001, n.s.=not significant.
FIG. 3A-H. Optimization of Additional Human Pluripotent Stem Cell Medium Constituents in a Short-Term Assay. E8 medium component concentrations are shown with a dark gray bar, optimizations were completed using a simple 6-day growth assay. […] (A) Comparison of the suitability of recombinant transferrin (10 μg ml−1) to support clonal growth with and without ROCK1/2 inhibition using Y27632 (10 μM) during the first 24 h after passage (n=3). (B) Comparison of two common ROCK1/2 inhibitors only during first 24 h after passage on relative growth (n>5). (C) Comparison of the effect of the addition of non-essential amino acids (NEAA) and chemically defined lipids (n=5) on relative growth. (D) Fatty acid-free albumin (n=4). (E) Sodium bicarbonate (n=5). (F) pH (n=9). (G) Osmolarity (n=8). (H) FGF2-G3 (n=3). n=full experimental replicates, unpaired Student's T-test, *P≤0.05, **P≤0.01, ***P≤0.005, ****P≤0.0001, n.s.=not significant.
The hiPSC line 19-3 was dissociated with TrypLE (Gibco™, 12604-013) for 3 min at 37° C. and cells were resuspended in DMEM/F12, transferred to a 15 ml conical tube (Falcon) and centrifuged at 200×g for 3 min (Sorvall ST40). The pellet was resuspended in DMEM/F12, diluted to 1×10^5 cells per ml and 10,000 cells were plated per well in Matrigel® (1:800)-coated 12-well plates (Greiner) in the medium to be tested along with 2 μM thiazovivin for the first 24 h. Media were changed daily and cells were grown for 6 days. This lower than normal seeding density was used to allow the discovery of factors only detectable under more extreme conditions and therefore provide data on the robustness to the formulation.

hiPSC = experiment: long-term 5-passage, 4-day hiPSC growth assay; assay type: cell-based, human; details: for confirmed concentration in long-term assay: FIG. 5A-C; for necessity of component for hiPSC culture: long-term assay, removal of dispensable components reduces growth rate; for concentration confirmed / usable / required in long-term assay: FIG. 5D-L
Source text: FIG. 5A-P. Optimization of B8 Medium Constituents with a Long-Term Growth Assay. Results are normalized to initial medium component concentrations shown with a dark gray bar, optimizations were completed using long-term 5-passage, 4-day growth assay. Comparison of the effect of (A) recombinant human insulin concentration on relative growth (n=10). (B) L-ascorbic acid 2-phosphate (n=10). (C) Recombinant transferrin (n=10). (D) Sodium selenite (n=5). (E) In-house made FGF2-G3 (n=6). (G) NODAL (n=5). (H) Activin A (n=5). (I) In-house made TGFb3 after 9 passages compared to commercial TGFb1 (n=9). (J) Addition of NRG1 to 40 ng ml−1 FGF2-G3 (n>5). (K) Final B8 formula. n=full experimental replicates, unpaired Student's T-test, *P≤0.05, **P≤0.01, ***P≤0.005, ****P≤0.0001, n.s.=not significant.
Our initial short-term experiments provided preliminary optimizations, yet we were aware from previous experiments that some variables, such as the elimination of TGFβ1, had minimal effects short-term and would only have detectable negative effects in long-term experiments. Thus the effectiveness of a long-term assay was evaluated with the following assay protocol: […]

[1] = cited from earlier work
phospho-ERK = experiment: stimulation of phospho-ERK in FGF2-starved hiPSC by media stored at 37° C. (Western blot); assay type: cell-based, human
Experimental: FIG. 7A-E. Qualification of B8 as Suitable for hiPSC Generation and Culture. […] (B) Expression of pluripotent markers in a variety of B8-derived hiPSC lines. (C) Example G-banding karyotype analysis of four hiPSC lines derived in B8 from blood. (D) hiPSC growth at low seeding densities in B8 compared to E8 (n=8). (E) Assessment of stimulation of phospho-ERK after media had been stored at 37° C. for 2 or 7 days, comparing in-house generated FGF2-G3 to a commercial FGF2 (Peprotech). hiPSC were starved of FGF2 for 24 h then treated with the indicated media for 1 h before collection for Western blot. Total ERK was used as a loading control.
Stock lysis buffer was prepared as 150 mM NaCl, 20 mM Tris pH 7.5, 1 mM EDTA, 1 mM EGTA, and 1% Triton X-100 and stored at 4° C. Fresh complete lysis buffer was prepared with final concentration of 1× Protease Inhibitor (Roche, 5892791001), 1× Phosphatase Inhibitor Cocktail 2 (P5726, Sigma), 1× Phosphatase Inhibitor Cocktail 3 (Sigma, P0044), 2 mM PMSF (Sigma, P7626), and 1% SDS Solution (Fisher Scientific, BP2436200). hiPSC were starved using B8 without FGF2 for 24 hours, then treated with media containing the corresponding FGF2 for 1 h. Media was then removed, and cells were washed once with DPBS, harvested with 0.5 mM EDTA in DPBS, and transferred into tubes. Samples were pelleted by centrifugation at 500×g for 3 minutes and the supernatant was discarded. The pellet was resuspend in 150 μl complete lysis buffer and incubated on ice for 30 min. Clear lysates were collected by centrifugation at 10,000×g for 10 min at 4° C. The protein concentration was measured with Qubit Protein Assay Kit (Invitrogen, Q33211) and Qubit 4 fluorometer. Lysates was stored in −80° C. before use. 10 μg of sample was prepared with NuPAGE™ LDS Sample Buffer (Invitrogen, B0007) and NuPAGE™ Reducing Agent (Invitrogen, B0009) according to the manufacturer's instructions and run on NuPAGE™ 10% Bis-Tris Gel (Invitrogen, NP0302BOX) and Mini Gel Tank system (Invitrogen, A25977) with Bolt MES SDS Running Buffer (Invitrogen, B000202) at 100 V for 1 h. […]

O=C1O[C@H]([C@@H](O)CO)C(O)=C1OP(=O)(O)O.[Na+].[Na+].[Na+] [Ascorbic acid 2-phosphate, L-ascorbic acid 2-phosphate trisodium salt]
necessity of component for hiPSC growth (hiPSC line 19-3): not essential
confirmed concentration in long-term assay (hiPSC): 200 µg/mL
necessity of component for hiPSC culture (hiPSC): dispensable

O=C([O-])O.[Na+] [sodium bicarbonate]
optimal concentration for growth (hiPSC line 19-3; FIG. 3E): 29 mM

O=[Se](O)O [sodium selenite]
concentrations that did not significantly affect growth (hiPSC line 19-3; FIG. 2D): 2 to 200 ng/mL
concentration confirmed / usable / required in long-term assay (hiPSC): 20 ng/mL

O=C(NCc1ccccc1)c1csc(Nc2ccncn2)n1 [thiazovivin, reference compound]
effect on growth vs 10 μM Y27632 (hiPSC line 19-3; 2 μM for the first 24 h after passage, FIG. 3B): marginally, though not significantly, improved growth

FGF2-K128N: recombinant human FGF2 with K128N substitution, made in-house in E. coli (SEQ ID NO: 4/14)
concentrations showing a similar effect on growth rate (hiPSC line 19-3; FIG. 3H): 100 ng/mL
optimal / sufficient concentration for growth (hiPSC line 19-3): ≥ 40 ng/mL

FGF2: fibroblast growth factor 2, human FGF2 (SEQ ID NO: 3)
necessity of component for hiPSC growth (hiPSC line 19-3): essential

IGF1 LR3: recombinant human IGF1 LR3 (Sigma, 91590C)
level of IGF1 LR3 able to replace insulin (hiPSC line 19-3; FIG. 2A, not cost-effective): ≥ 1 µg/mL

TGFβ1: recombinant human TGFβ1 (112 amino acid, HEK293-derived, Peprotech)
optimal / sufficient concentration for growth (hiPSC line 19-3): ≥ 0.5 ng/mL
concentration confirmed / usable / required in long-term assay (hiPSC): 0.1 ng/mL
necessity of component for hiPSC culture (hiPSC): essential

TGFβ1m: TGFβ1 with C77S point mutation, unable to form dimers, produced in E. coli
potency relative to TGFβ1 (fold less potent) ([1]; monomeric C77S protein, predicted (Kim et al., 2015)): ~20 fold

TGFβ3: 112 amino acid TGFβ3 (SEQ ID NO: 16) made in E. coli as thioredoxin fusion protein
concentration confirmed / usable / required in long-term assay (hiPSC): 0.1 ng/mL
potency relative to TGFβ1 ([1]; Huang et al., 2014): more potent than TGFβ1

Transferrin: Oryza sativa-derived recombinant human transferrin (Optiferrin, InVitria)
concentration enhancing growth / giving optimal growth (hiPSC line 19-3; FIG. 2B-C): 20 µg/mL
necessity of component for hiPSC growth (hiPSC line 19-3): not essential
confirmed concentration in long-term assay (hiPSC): 20 µg/mL
necessity of component for hiPSC culture (hiPSC): dispensable

commercial FGF2: a commercial FGF2 (Peprotech) [reference compound]
pERK stimulation after storage of media at 37° C. (phospho-ERK; 2 days at 37° C.): not capable of stimulating pERK

insulin: E. coli-derived recombinant human insulin (Gibco)
concentration up to which effect on growth was dose-dependent (hiPSC line 19-3; FIG. 2A): up to 20 μg ml^−1
necessity of component for hiPSC growth (hiPSC line 19-3): essential
confirmed concentration in long-term assay (hiPSC): 20 µg/mL

B1: FGF2-G3: thermostable FGF2 with nine point mutations, made in-house in E. coli (SEQ ID NO: 15) (protein)
chain: AAGSITTLPALPEDGGSGAFPPGHFKDPKLLYCKNGGFFLRIHPDGRVDGTRDKSDPFIKLQLQAEERGVVSIKGVCANRYLAMKEDGRLYAIKNVTDECFFFERLEENNYNTYRSRKYPSWYVALKRTGQYKLGSKTGPGQKAILFLPMSAKS
concentrations showing a similar effect on growth rate (hiPSC line 19-3; FIG. 3H): 5 ng/mL
relative potency on growth rate (hiPSC line 19-3; FIG. 3H): more potent than FGF2-K128N
concentration confirmed / usable / required in long-term assay (hiPSC): 40 ng/mL
stability (pERK stimulation) after storage of media at 37° C. (phospho-ERK; 7 days at 37° C.): stable

B2: NODAL: Activin/NODAL/TGFβ1 signaling source (protein, UniProt Q96S42 238-347, looked up)
Nodal homolog: HHLPDRSQLCRKVKFQVDFNLIGWGSWIIYPKQYNAYRCEGECPNPVGEEFHPTNHAYIQSLLKRYQPHRVPSTCCAPVKTKPLSMLYVDNGRVLLDHHKDMIVEECGCL
concentration confirmed / usable / required in long-term assay (hiPSC): 100 ng/mL

B3: Activin A: Activin/NODAL/TGFβ1 signaling source (protein, UniProt P08476 311-426, looked up)
Inhibin beta A chain: GLECDGKVNICCKKQFFVSFKDIGWNDWIIAPSGYHANYCEGECPSHIAGTSGSSLSFHSTVINHYRMRGHSPFANLKSCCVPTKLRPMSMLYYDDGQNIIKKDIQNMIVEECGCS
modifications: Inhibin beta A chain
effect on growth in combination with TGFβ1 (hiPSC; FIG. 5I): negative effect on growth
suitability to maintain growth (hiPSC; alone, FIG. 5H): not suitable to maintain growth to the same level as TGFβ1
support of growth at very low doses (hiPSC; very low doses): could support growth, albeit to a lesser extent than TGFβ1

B4: NRG1: 65 amino acid truncated neuregulin 1 containing just the EGF domain (SEQ ID NO: 17) (protein)
chain: SHLVKCAEKEKTFCVNGGECFMVKDLSNPSRYLCKCPNEFTGDRCQNYVMASFYKHLGIEFMEAE
enhancement of growth over FGF2-G3 alone (hiPSC; all tested levels of NRG1 added to 40 ng ml−1 FGF2-G3): > 15%
necessity of component for hiPSC culture (hiPSC): dispensable
support of growth in the absence of FGF2 (hiPSC; no FGF2): not able to support growth
